Test results published in the NIST ThermoML archive (doi:10.1021/je060271a).

Settings: 283.15 K, Liquid, Vibrating tube method

CCCCCC(=O)OCC(COC(=O)CCCCC)(COC(=O)CCCCC)COC(=O)CCCCC [pentaerythritol tetrahexanoate]
Settings | mass density [kg/m3]
7124.1 kPa | 1008.3
7135 kPa | 1008.3
7146.2 kPa | 1008.3
7159.7 kPa | 1008.3
7170.9 kPa | 1008.3
7182 kPa | 1008.3
7193.4 kPa | 1008.3
7206.5 kPa | 1008.3
7217.2 kPa | 1008.4
7228.4 kPa | 1008.3
7241.6 kPa | 1008.4
7252.8 kPa | 1008.4
7264.2 kPa | 1008.4
7277.8 kPa | 1008.3
7289 kPa | 1008.4
7300.4 kPa | 1008.3
7311.8 kPa | 1008.3
7323.4 kPa | 1008.3
7336.9 kPa | 1008.4
7348.4 kPa | 1008.4
7360.2 kPa | 1008.3
7373.8 kPa | 1008.5
7385.4 kPa | 1008.3
7396.9 kPa | 1008.4
7408.7 kPa | 1008.5
7422.7 kPa | 1008.5
7434.6 kPa | 1008.5
7446.5 kPa | 1008.5
7458.6 kPa | 1008.5
7472.7 kPa | 1008.5
7484.8 kPa | 1008.6
7496.7 kPa | 1008.4
7508.6 kPa | 1008.6
7523.2 kPa | 1008.5
7534.9 kPa | 1008.5
7547.3 kPa | 1008.6
7561.6 kPa | 1008.5
7573.6 kPa | 1008.5
7586 kPa | 1008.5
7598.2 kPa | 1008.6
7613.2 kPa | 1008.4
7625.9 kPa | 1008.6
7637.9 kPa | 1008.6
7650.7 kPa | 1008.5
7665 kPa | 1008.6
7678 kPa | 1008.5
7690.4 kPa | 1008.6
7705.3 kPa | 1008.7
7717.7 kPa | 1008.6
7730.5 kPa | 1008.7
7742.7 kPa | 1008.6
7758.4 kPa | 1008.7
7771.4 kPa | 1008.7
7784.3 kPa | 1008.7
7798.4 kPa | 1008.5
7811.2 kPa | 1008.7
7826.7 kPa | 1008.7
7839.6 kPa | 1008.8
7852.8 kPa | 1008.8
7866 kPa | 1008.8
7881.9 kPa | 1008.7
7895 kPa | 1008.7
7908.3 kPa | 1008.7
7924.2 kPa | 1008.7
7937.3 kPa | 1008.7
7950.8 kPa | 1008.6
7967.7 kPa | 1008.7
7978.6 kPa | 1008.7
7994.5 kPa | 1008.8
8008.3 kPa | 1008.8
8022.4 kPa | 1008.7
8036.2 kPa | 1008.9
8052.3 kPa | 1008.8
8065.9 kPa | 1008.8
8080.1 kPa | 1008.9
8094.4 kPa | 1008.8
8110.8 kPa | 1008.9
8125.1 kPa | 1008.8
8139.2 kPa | 1008.8
8153.4 kPa | 1008.9
8167.7 kPa | 1008.8
8184.9 kPa | 1008.9
8199.1 kPa | 1008.8
8213.4 kPa | 1008.9
8230.8 kPa | 1008.9
8245.5 kPa | 1008.9
8259.8 kPa | 1008.8
8274.5 kPa | 1009
8291.9 kPa | 1008.9
8306.6 kPa | 1009
8320.7 kPa | 1009
8335.5 kPa | 1009.1
8385.6 kPa | 1009
8400.7 kPa | 1009
8415.4 kPa | 1009.1
8430.1 kPa | 1009
8447.5 kPa | 1009
8463 kPa | 1009
8478 kPa | 1009.1
8496.3 kPa | 1009.1
8511.3 kPa | 1009
8529.1 kPa | 1009.1
8544.6 kPa | 1009.1
8560.6 kPa | 1009.1
8576.2 kPa | 1009.1
8594.8 kPa | 1009.1
8609.8 kPa | 1009.2
8625.5 kPa | 1009.1
8644.3 kPa | 1009.3
8659.6 kPa | 1009.2
8678.4 kPa | 1009.2
8694.4 kPa | 1009.1
8710.5 kPa | 1009.1
8729.5 kPa | 1009.2
8745.1 kPa | 1009.1
8761.5 kPa | 1009.1
8778.1 kPa | 1009.3
8797.7 kPa | 1009.2
8813.6 kPa | 1009.3
8833.4 kPa | 1009.1
8849.8 kPa | 1009.3
8865.8 kPa | 1009.3
8882.4 kPa | 1009.2
8902.4 kPa | 1009.2
8919.1 kPa | 1009.3
8935.3 kPa | 1009.3
8955.5 kPa | 1009.4
8972.2 kPa | 1009.2
8992.6 kPa | 1009.4
9009.6 kPa | 1009.3
9026.7 kPa | 1009.4
9043.4 kPa | 1009.5
9063.8 kPa | 1009.4
9081 kPa | 1009.3
9098.4 kPa | 1009.5
9118.9 kPa | 1009.4
9136.1 kPa | 1009.4
9156.6 kPa | 1009.4
9173.7 kPa | 1009.4
9191.1 kPa | 1009.5
9212.2 kPa | 1009.5
9230.4 kPa | 1009.5
9249.2 kPa | 1009.5
9266.9 kPa | 1009.5
